Assay results from US5409941A, “5-heteroyl indole derivatives” (Pfizer Inc., priority 1993, dated 1995).
Where two headings read alike, the source gives them in different places.

Molecular target: T1, 5-HT1D (Bos taurus, UniProt F1MGM3)
T1 construct: from tissue
Experiment: 5-HT1D activity, method of R. E. Heuring and S. J. Peroutka
Format: binding
Procedure: The active compounds of the invention are evaluated as anti-migraine agents by testing the extent to which they mimic sumatriptan in contracting the dog isolated saphenous vein strip (P. P. A. Humphrey et al., Br. J. Pharmacol., 94, 1128 (1988)). This effect can be blocked by methiothepin, a known serotonin antagonist. Sumatriptan is known to be useful in the treatment of migraine and produces a selective increase in carotid vascular resistance in the anaesthetized dog. […] The active compounds are also evaluated using the method of R. E. Heuring and S. J. Peroutka (J. Neuroscience, 7, 894 (1987)).

[1] = method of Heuring and Peroutka, J. Neuroscience, 7, 894 (1987), read-out: IC50 (5-HT1D activity)

T1 sequence (F1MGM3 1-403): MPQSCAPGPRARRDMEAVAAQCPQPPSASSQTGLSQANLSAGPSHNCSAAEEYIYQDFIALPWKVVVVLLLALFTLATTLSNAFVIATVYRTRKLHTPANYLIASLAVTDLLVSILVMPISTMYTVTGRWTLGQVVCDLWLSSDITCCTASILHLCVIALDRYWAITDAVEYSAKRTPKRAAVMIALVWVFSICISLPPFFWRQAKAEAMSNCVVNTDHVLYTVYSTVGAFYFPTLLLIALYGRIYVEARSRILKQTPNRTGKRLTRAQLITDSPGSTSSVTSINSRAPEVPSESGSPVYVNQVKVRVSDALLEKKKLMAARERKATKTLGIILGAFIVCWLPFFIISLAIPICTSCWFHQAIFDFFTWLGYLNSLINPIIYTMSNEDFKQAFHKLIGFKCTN

Structure (SMILES)	IC50	IC50 [1]
Cc1csc(Cc2ccc3[nH]cc(C4=CCNCC4)c3c2)n1 [Example 26, 2-[3-(1,2,5,6-Tetrahydropyrid-4-yl)indol-5-ylmethyl]-4-methylthiazole]	≥ 1000 nM	–
CN(C)CCc1c[nH]c2ccc(-c3nc(CSc4ccccc4)cs3)cc12 [Example 15B, 2-[3-(N,N-Dimethylaminoethyl)indol-5-yl)-4-(thiophenoxymethyl)thiazole]	–	≥ 1000 nM
CN(C)CCc1c[nH]c2ccc(-c3nccs3)cc12 [Example 7, 2-[3-(N,N-Dimethylaminoethyl)indol-5-yl]thiazole]	–	≥ 1000 nM
Cc1nc(-c2ccc3[nH]cc(C4=CCNCC4)c3c2)cs1 [Example 20, 4-[3-(1,2,5,6-Tetrahydropyrid-4-yl)indol-5-yl]-2-methylthiazole]	≥ 1000 nM	–
CN(C)CCc1c[nH]c2ccc(-c3nc(CNc4ccccc4)cs3)cc12 [Example 13, 2-[3-(N,N-Dimethylaminoethyl)-indol-5-yl]-4-(phenylaminomethyl)thiazole]	–	≥ 1000 nM
CN1CCC(c2c[nH]c3ccc(-c4nc(CNc5ccccc5)cs4)cc23)CC1 [Example 28, 2-[3-(1-Methylpiperidin-4-yl)indol-5-yl]-4-(phenylaminomethyl)thiazole]	–	≥ 1000 nM
CN(C)CCc1c[nH]c2ccc(-c3nc(COc4ccccc4)cs3)cc12 [Example 15A, 2-[3-(N,N-Dimethylaminoethyl)indol-5-yl]-4-(phenoxymethyl)thiazole]	–	≥ 1000 nM
